Here are results for one compound from US9414591B2, “Chitooligosaccharides and methods for use in enhancing corn growth” (NOVOZYMES BIOAG A/S, priority 2011, dated 2016).

Common to all, as to type: in vivo
Assay [1] deals with Hybrid corn seeds (92L90). The assay is described as follows: Greenhouse corn seed treatment, plant dry weight (Example 1). The note with it: seed treatment solution 10^-8 M. The protocol:
Two seed treatment experiments using only Pea LCO, Pea CO and the CO mixtures obtained from chitosan by enzymatic process (structurally distinct from the Pea CO, and also referred to in the examples as the “China CO”) were performed in greenhouse. Hybrid corn seeds (92L90, Peterson Farm, USA) were treated with treatment solution (10^-8 M) at the rate of 3 fl oz/100 lbs of seed. Seeds were planted in plastic pots containing 1:1 Sand:Perlite mixture. Seeds were allowed to grow for about 3-4 weeks and then they were harvested and their dry weight measured.

Assay [2] concerns Corn seeds. The assay is described as follows: Corn seed germination in petriplates (Example 2). The note with it: 5 days after plating. The procedure:
Corn seeds were plated in petriplates containing 5 ml of treatment solution on a filter paper. Corn seeds were placed on moist filter paper for germination. Similarly, wheat seeds (spring wheat) were placed in petriplates. […] Roots were harvested and their length measured by WinRhizo system.

Assay [3] deals with Corn seeds. The assay is described as follows: Greenhouse corn seed application, seedling dry weight (Example 3). Particulars: alone at 10^−8 M; harvested 10 days after planting (FIG. 9). The procedure:
Corn seeds were treated with various combinations of Pea CO (10^-8 M) and Pea LCO (10-8, 10^-9 M). Seeds were planted in greenhouse plastic pots containing 1:1 sand:perlite mixture. Seedlings were harvested 10 days after planting, washed clean and then dried in an oven at 60 C for 48 hr.

Another assay concerns corn foliage. Put plainly: Field trials, grain yield when applied to corn foliage (Example 4).
Another assay relates to corn seed. Put plainly: Field trials, grain yield when applied to corn seed before planting (Example 5).
Setting [4] is: seed treatment, CO compared to LCO, less.

Each structure is given as a SMILES string.

Consider `CC(=O)NC1C(O)OC(CO)C(OC2OC(CO)C(OC3OC(CO)C(OC4OC(CO)C(OC5OC(CO)C(O)C(O)C5N)C(O)C4NC(C)=O)C(O)C3NC(C)=O)C(O)C2NC(C)=O)C1O` (stereo not shown) [CO (CO-V)], for which, in assay [1] (both experiments), the “shoot, root and total biomass / plant dry weight compared to LCO” value is “greater shoot, root and total biomass increase over non-inventive and comparable LCO”. Also, the “dry weight increase over LCO” value in assay [1] (first trial (FIG. 5), 3 fl oz/100 lbs of seed, harvested after about 3-4 weeks) came to 11.84%. The “dry weight-increase over LCO” value in assay [1] (second trial (FIG. 6), 3 fl oz/100 lbs of seed, harvested after about 3-4 weeks) is on record as 12.63%. In addition, the “seed germination” value in the assay with Corn seeds [2] (5 ml treatment solution on filter paper, vs control (FIG. 7)) is recorded as “increased germination”. The “seedling root length” value with Corn seeds [2] (WinRhizo system, vs control) is “significantly increased seedling root length over control”. Further, the “corn seedling dry weight” value with Corn seeds [3] is “increased corn seedling dry weight”. For the same compound, the “yield enhancement as a foliar treatment” value with corn foliage is “performed at least twice better than the LCO”. Moreover, the “CO mean yield better than foliar LCO response” value with corn foliage (CO compared to LCO) turned out to be 5.0 bu/A. Besides, the “YIELD, Response Increase (% of Control)” value in the assay on corn foliage (foliar) is on record as 4.8 % of Control. Moreover, the “YIELD, Mean (N = 16)” value with corn foliage (foliar, 4 ounces per acre with glyphosate herbicide, 16 field trials) is 201.8 bu/A. For the same compound, in the assay on corn foliage (foliar, CO compared to LCO), the “higher yield increase than LCO” value turned out to be 2.6% and the “trials with a positive response, better than LCO” value is given as 18.8%. In addition, the “Positive Yield Response (%)” value in the assay with corn foliage (foliar, share of the 16 trials with positive yield enhancement) was 93.8%. In the assay on corn foliage (foliar, versus Control (water)), the “YIELD, Response (bu/A)” value stood at 9.2 bu/A. In the assay with corn seed (seed treatment), the “YIELD, Response Increase (% of Control)” value is on record as 3.6 % of Control and the “yield enhancement when applied to corn seed” value is reported as “provided yield enhancement above the Control”. The “YIELD, Mean (N = 10)” value in the assay on corn seed (seed treatment 1×10-8 molar, 1 μg/acre, 3 fluid ounces per 50 pounds of seed, 10 field trials) stood at 188.0 bu/A. Besides, in the assay with corn seed (setting [4]), the “CO mean yield less than LCO” value was 4.6 bu/A, the “less positive yield responses than LCO” value is 10.0% and the “less yield increase above the Control than LCO” value worked out at 2.5%. Besides, the “Positive Yield Response (%)” value in the assay with corn seed (seed treatment, share of the 10 trials with positive yield enhancement) was found to be 80.0%. For the same compound, the “YIELD, Response (bu/A)” value with corn seed (seed treatment, versus Control (water)) is on record as 6.5 bu/A.
